# Reference: patent US20250177425A1, “SAIKOSAPONIN C AS COMPOSITION FOR TREATING OR PREVENTING AGE-RELATED VASCULAR DISEASES INCLUDING ARTERIOSCLEROSIS” (AGINGTARGET, INC., priority 2022, published 2025)
# How the values were obtained:
# [1] = test system: HPAEC; experiment: Cell cycle analysis by flow cytometry (PI), high glucose-induced G1 phase arrest; format: cell-based, human; details: 5 μM and 20 μM pretreatment 2 hours, 33 mM high glucose 48 hours, dose-dependent
# Protocol: (§1) Similar to Experimental Example 1, a high-fat diet evaluation system at the cellular level was established.
# (§2) Specifically, two types of vascular endothelial cells, namely, HUVEC and HPAEC cells, were pretreated with Saikosaponin C at concentrations of 5 μM and 20 μM for 2 hours, then treated with high glucose (33 mM) for 48 hours, and then immobilized with cold 70% ethanol. The DNA of the immobilized vascular endothelial cells was stained with PI (propidium iodide, 50 μg/ml) solution and the cell cycle was analyzed using a flow cytometer. In addition, the expression of cell cycle regulatory proteins such as p21, p27, and p16 was analyzed after treatment with high glucose (33 mM) for 36 hours.
# (§3) Since cellular senescence is closely related to the arrest in the G1 phase of the cell cycle, the cell cycle was evaluated using flow cytometry (FIG. 4A and FIG. 4B). In addition, the expression of p21, p27, and p16 proteins, which are G1 phase growth arrest-inducing proteins, was measured through Western blotting (FIG. 4C, FIG. 4D).
# [2] = test system: HUVEC; experiment: as above; format: cell-based, human; details: 5 μM and 20 μM pretreatment 2 hours, 33 mM high glucose 48 hours, dose-dependent
# Protocol: as §1, §2, §3
# [3] = test system: HCAEC; experiment: Monocyte-endothelial cell adhesion caused by TNF-α (Calcein AM-labeled THP-1); format: cell-based, human; details: 5 μM and 20 μM pretreatment 2 hours, TNF-α 20 ng/ml 8 hours, THP-1 monocytes
# Protocol: (§4) Specifically, two types of vascular endothelial cells, namely, HUVEC (human umbilical vein endothelial cells) and HCAEC (human coronary artery endothelial cells), were pretreated with Saikosaponin C at concentrations of 5 μM and 20 μM for 2 hours, and then treated with TNF-α (20 ng/ml) for 8 hours. Then, adhesion of monocyte-vascular endothelial cell and expression of cell adhesion molecules (ICAM-1, VCAM-1) of vascular endothelial cells were observed. […] The adhesion of monocyte-endothelial cells was evaluated by imaging analysis using a confocal microscope and fluorescence analysis using a microplate reader, and expression of adhesion proteins (ICAM-1 and VCAM-1) was evaluated by Western blotting.
# (§5) Calcein AM fluorescence was analyzed using a confocal microscope and a microplate reader, and the expression of cell adhesion proteins (ICAM-1, VCAM-1) were evaluated through Western blotting.
# (§6) FIGS. 9A and 9B show the results of analysis of monocyte-endothelial cell adhesion in two types of vascular endothelial cells (HUVEC, HCAEC) using a confocal microscope, and FIGS. 9C and 9D show the results of analysis of Calcein AM fluorescence (at an excitation wavelength of 488 nm, and at an emission wavelength of 517 nm) in the same experiment using a microplate reader. […]
# [4] = test system: HUVEC; experiment: as above; format: cell-based, human; details: 5 μM and 20 μM pretreatment 2 hours, TNF-α 20 ng/ml 8 hours, THP-1 monocytes
# Protocol: as §4, §5, §6
# [5] = biological target: T1, NLRP3 inflammasome (Homo sapiens, UniProt Q96P20); experiment: NLRP3 inflammasome activity: IL-1β secretion (Solid Phase Sandwich ELISA); details: PMA-differentiated THP-1 macrophages; 20 μM pretreatment 2 hours, MSU 200 μg/ml 6 hours
# T1 sequence (Q96P20 whole entry): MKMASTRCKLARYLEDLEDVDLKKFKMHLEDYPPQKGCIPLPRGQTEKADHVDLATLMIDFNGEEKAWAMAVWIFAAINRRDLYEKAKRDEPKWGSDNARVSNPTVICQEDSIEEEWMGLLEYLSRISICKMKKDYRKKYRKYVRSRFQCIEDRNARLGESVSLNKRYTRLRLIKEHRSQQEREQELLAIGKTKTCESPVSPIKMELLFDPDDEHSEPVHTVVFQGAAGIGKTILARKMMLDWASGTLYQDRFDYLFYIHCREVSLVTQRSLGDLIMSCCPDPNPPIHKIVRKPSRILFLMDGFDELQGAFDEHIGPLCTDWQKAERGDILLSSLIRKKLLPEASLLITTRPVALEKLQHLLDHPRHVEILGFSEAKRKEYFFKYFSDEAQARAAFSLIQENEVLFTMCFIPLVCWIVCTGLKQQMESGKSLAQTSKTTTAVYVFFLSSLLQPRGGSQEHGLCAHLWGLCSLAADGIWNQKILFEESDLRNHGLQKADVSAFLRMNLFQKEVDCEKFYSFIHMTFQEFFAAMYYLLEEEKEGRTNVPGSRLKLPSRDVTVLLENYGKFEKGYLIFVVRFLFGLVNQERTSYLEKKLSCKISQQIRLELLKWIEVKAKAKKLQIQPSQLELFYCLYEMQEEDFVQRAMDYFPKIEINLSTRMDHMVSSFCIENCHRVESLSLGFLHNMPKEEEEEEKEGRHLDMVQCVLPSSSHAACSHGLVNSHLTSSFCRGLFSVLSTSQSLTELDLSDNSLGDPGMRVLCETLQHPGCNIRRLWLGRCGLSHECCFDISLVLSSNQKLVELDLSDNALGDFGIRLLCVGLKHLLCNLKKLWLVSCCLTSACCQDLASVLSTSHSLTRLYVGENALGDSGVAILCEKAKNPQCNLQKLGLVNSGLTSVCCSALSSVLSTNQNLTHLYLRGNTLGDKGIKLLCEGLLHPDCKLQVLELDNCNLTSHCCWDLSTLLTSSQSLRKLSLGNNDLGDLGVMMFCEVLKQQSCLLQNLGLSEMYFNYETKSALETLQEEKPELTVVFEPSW
# [6] = test system: THP-1 cells differentiated into macrophages; experiment: Macrophage foam cell formation by ox-LDL (Oil Red O staining); format: cell-based, human; details: PMA-differentiated THP-1 macrophages; 5 μM and 20 μM pretreatment 2 hours, ox-LDL 100 μg/ml 24 hours
# Protocol: The differentiated macrophages were pretreated with Saikosaponin C at concentrations of 5 μM and 20 μM for 2 hours, and then treated with oxidized LDL (ox-LDL) (100 μg/ml), a foam cell inducer, for 24 hours. Then, the formation of foam cells from macrophages was observed. The foam cell formation was evaluated by microscopic analysis after Oil Red O staining of adsorbed lipid molecules and absorbance analysis using a microplate reader.
# The nucleus was stained with hematoxylin dye for 1 minute.
# [7] = test system: HPAEC; experiment: MTT assay, high glucose-induced growth inhibition; format: cell-based, human; details: 5 μM and 20 μM pretreatment 2 hours, 33 mM high glucose 72 hours, dose-dependent
# Protocol: (§7) A high-fat diet test system at the cellular level was established using 33 mM high glucose (HG), which is 6 times the standard glucose concentration of 5.5 mM in the vascular endothelial cell culture medium.
# (§8) Specifically, two types of endothelial cells, namely, human umbilical vein endothelial cells (HUVECs) and human pulmonary artery endothelial cells (HPAECs), were pretreated with 5 μM and 20 μM of Saikosaponin C (SSc) for 2 hours, and then treated with 33 mM of high glucose for 72 hours. Then, cell growth was analyzed using the MTT assay, which measures the mitochondrial metabolic capacity of living cells.
# (§9) Endothelial cell growth was assessed by measuring the absorbance of MTT formazan at a wavelength of 590 nm.
# [8] = test system: HUVEC; experiment: MTT assay, high glucose-induced growth inhibition; format: cell-based, human; details: 5 μM and 20 μM pretreatment 2 hours, 33 mM high glucose 72 hours, dose-dependent
# Protocol: as §7, §8, §9
# [9] = biological target: T1, NLRP3 inflammasome; experiment: NLRP3 inflammasome activity: caspase-1 cleavage (Western blotting); details: PMA-differentiated THP-1 macrophages; 20 μM pretreatment 2 hours, MSU 200 μg/ml 6 hours
# [10] = test system: HPAEC; experiment: SA-β-gal staining, high glucose-induced senescence; format: cell-based, human; details: 5 μM and 20 μM pretreatment 2 hours, 33 mM high glucose 72 hours, dose-dependent
# Protocol: as §1
# (§10) Specifically, two types of vascular endothelial cells, namely, HUVEC and HPAEC cells, were pretreated with Saikosaponin C at concentrations of 5 μM and 20 μM for 2 hours, and then treated with high glucose at a concentration of 33 mM for 72 hours (for SA-β-gal staining) or 48 hours (for vascular senescence marker protein analysis). Then, the degree of cellular senescence was measured through SA-β-gal staining and measured as the ratio of the total cells to cells stained in blue (SA-β-gal positive). In addition, the expression of vascular senescence marker proteins such as PAI-1, ICAM-1, and VCAM-1 was analyzed.
# (§11) Specifically, the senescence of vascular endothelial cells was evaluated by SA-β-gal staining to measure the activity of β-galactosidase, which is an enzyme present in the lysosome, an organelle within the cell (FIG. 3C and FIG. 3D) and this was represented as a graph (FIG. 3A and FIG. 3B). In addition, FIGS. 3E and 3F show the results of Western blotting to determine the expression of vascular senescence marker proteins such as PAI-1, ICAM-1, and VCAM-1 in two types of vascular endothelial cells (HUVEC, HPAEC).
# [11] = test system: HUVEC; experiment: SA-β-gal staining, high glucose-induced senescence; format: cell-based, human; details: 5 μM and 20 μM pretreatment 2 hours, 33 mM high glucose 72 hours, dose-dependent
# Protocol: as §1, §10, §11
structure (smiles),measurement,setting,value
CC1O[C@@H](O[C@@H]2C(CO[C@@H]3OC(CO)[C@@H](O)C(O)C3O)O[C@@H](O[C@H]3CC[C@]4(C)[C@H]5C=C[C@]67OC[C@@]8(CCC(C)(C)C[C@H]86)[C@@H](O)C[C@@]7(C)[C@]5(C)CC[C@H]4C3(C)C)C(O)C2O)C(O)C(O)[C@H]1O (some centres unmarked) [Saikosaponin C],high glucose-induced G1 phase arrest,[1],significantly abolished
same,high glucose-induced G1 phase arrest,[2],significantly abolished
same,monocyte-endothelial cell adhesion caused by TNF-α,[3],inhibited
same,monocyte-endothelial cell adhesion caused by TNF-α,[4],inhibited
same,IL-1β secretion,[5],inhibited
same,foam cell formation by lipid deposition (Oil Red O),[6],suppressed
same,high glucose-induced cell growth inhibition (MTT),[7],significantly alleviated
same,high glucose-induced cell growth inhibition (MTT),[8],significantly alleviated
same,caspase-1 cleavage,[9],inhibited
same,high glucose-induced SA-β-gal positive cells,[10],significantly reduced
same,high glucose-induced SA-β-gal positive cells,[11],significantly reduced
